According to patent US10316056B2, “Chemical compounds and use thereof for improving muscular quality” (BIOPHYTIS, priority 2014, dated 2019):

Each molecule was assayed on myostatin gene expression in C2C12 cells (assay: Inhibition of myostatin expression in C2C12 cells (qPCR)). Conditions: Mus musculus, percentage myostatin gene expression in cells in contact with the compounds related to control cells, C2C12, 6 h.
Type: cell-based
Experimental: After several experiments in which the C2C12 cells differentiated into myotubes were incubated in the presence of IGF-1 or 20E for 2 h 30 or 6 h, two screening tests were developed. Thus, the phosphorylation of the S6 protein kinase and the expression of the myostatin gene were studied in order to determine their modulation by a growth hormone or an ecdysone and to characterize these modulations from a statistical point of view. The C2C12 myoblast cells (ATCC CRL-1772) are seeded into 24-well plates at a density of 30 000 cells per well and cultured in a DMEM medium containing glucose in a proportion of 4.5 g/l and supplemented with fetal calf serum (10%) and with antibiotics (penicillin and streptomycin). Forty-eight hours later, the myoblasts are induced to differentiate by partial serum depletion (2% instead of 10%) for 5 days. The cells are then placed in a medium which is glucose-depleted (DMEM containing 1 g/l of glucose) and serum-free in the presence of the test molecules or of the references (100 ng/ml IGF-1 or 10 μ[…]) for 6 h. At the end of the experiment, the messenger RNAs (mRNAs) are extracted using the conventional methodology based on phenol and chloroform. Briefly, the cells are lysed in a Trizol solution (Sigma T9424) containing a strong acid and phenol. The mRNAs are separated from the proteins by addition of chloroform and then centrifugation. They are then precipitated from isopropanol and then suspended at a concentration of 1 μg/μl in an […] ultrapure water. 1 μg of mRNA is then converted by reverse transcription into complementary DNA by the AMV enzyme in the presence of a primer and of a mixture of nucleotides according to the protocol given by the supplier (Applied Biosystems 4368814). […] The qPCRs are carried out on a 7900HT Fast real-Time PCR detection system (Applied Biosystems). The programming conditions are standard and consist of 1 cycle at 95° C. for 15 min, followed by 40 cycles at 95° C. for 15 s and at 60° C. for 1 min and the program ends with a melt curve step between 60° C. and 95° C. […] Fluorescent probes bind to the double-stranded DNA and are fluorescent only once bound to the DNA. A fluorescence threshold is established by the machine's program. When the amount of DNA allows the fluorescent probe to exceed this threshold, a PCR cycle number, called “Ct” for “Cycle Threshold”, is obtained. It is this value which forms the basis of the calculations to quantify the DNA relatively. A ratio R is established between the amount of starting DNA of a sample and that of a control, which has not undergone treatment (i.e. […] R=2^-ΔΔCt).

Row | SMILES | mrna remaining at 10 µM [%]
1 | C=CC(=O)N(CC1CCCO1)C(C)[C@H]1CC[C@@]2(O)C3=CC(=O)[C@@H]4C[C@@H](O)[C@@H](O)C[C@]4(C)C3CC[C@]12C (stereo partly drawn) [Compound 48, N-(tetrahydrofuran-2-ylmethyl)-N-[1-[(2S,3R,5R,10R,13R,14S,17S)-2,3,14-trihydroxy-10,13-dimethyl-6-oxo-2,3,4,5,9,11,12,15,16,17-decahydro-1H-cyclopenta[a]phenanthren-17-yl]ethyl]prop-2-enamide] | 71 to 85
2 | COCCN(C(=O)c1cccs1)C(C)[C@H]1CC[C@@]2(O)C3=CC(=O)[C@@H]4C[C@@H](O)[C@@H](O)C[C@]4(C)C3CC[C@]12C (stereo partly drawn) [Compound 53, N-(2-methoxyethyl)-N-[1-[(2S,3R,5R,10R,13R,14S,17S)-2,3,14-trihydroxy-10,13-dimethyl-6-oxo-2,3,4,5,9,11,12,15,16,17-decahydro-1H-cyclopenta[a]phenanthren-17-yl]ethyl]thiophene-2-carboxamide] | < 70
3 | COCC(=O)N(C1CC1)C(C)[C@H]1CC[C@@]2(O)C3=CC(=O)[C@@H]4C[C@@H](O)[C@@H](O)C[C@]4(C)C3CC[C@]12C (stereo partly drawn) [Compound 54, N-cyclopropyl-2-methoxy-N-[1-[(2S,3R,5R,10R,13R,14S,17S)-2,3,14-trihydroxy-10,13-dimethyl-6-oxo-2,3,4,5,9,11,12,15,16,17-decahydro-1H-cyclopenta[a]phenanthren-17-yl]ethyl]acetacetamide] | < 70
4 | CC([C@H]1CC[C@@]2(O)C3=CC(=O)[C@@H]4C[C@@H](O)[C@@H](O)C[C@]4(C)C3CC[C@]12C)N(C(=O)c1ccc(C#N)cc1)C1CC1 (stereo partly drawn) [Compound 56, 4-cyano-N-cyclopropyl-N-[1-[(2S,3R,5R,10R,13R,14S,17S)-2,3,14-trihydroxy-10,13-dimethyl-6-oxo-2,3,4,5,9,11,12,15,16,17-decahydro-1H-cyclopenta[a]phenanthren-17-yl]ethyl]benzamide] | 71 to 85
5 | COCCN(C(=O)N1CCOCC1)C(C)[C@H]1CC[C@@]2(O)C3=CC(=O)[C@@H]4C[C@@H](O)[C@@H](O)C[C@]4(C)C3CC[C@]12C (stereo partly drawn) [Compound 57, N-(2-methoxyethyl)-N-[1-[(2S,3R,5R,10R,13R,14S,17S)-2,3,14-trihydroxy-10,13-dimethyl-6-oxo-2,3,4,5,9,11,12,15,16,17-decahydro-1H-cyclopenta[a]phenanthren-17-yl]ethyl]morpholine-4-carboxamide] | 71 to 85
6 | COC(CN(C(=O)c1ccco1)C(C)[C@H]1CC[C@@]2(O)C3=CC(=O)[C@@H]4C[C@@H](O)[C@@H](O)C[C@]4(C)C3CC[C@]12C)OC (stereo partly drawn) [Compound 60, N-(2,2-dimethoxyethyl)-N-[1-[(2S,3R,5R,10R,13R,14S,17S)-2,3,14-trihydroxy-10,13-dimethyl-6-oxo-2,3,4,5,9,11,12,15,16,17-decahydro-1H-cyclopenta[a]phenanthren-17-yl]ethyl]furan-2-carboxamide] | 71 to 85
7 | COC(CN(C(=O)c1cccs1)C(C)[C@H]1CC[C@@]2(O)C3=CC(=O)[C@@H]4C[C@@H](O)[C@@H](O)C[C@]4(C)C3CC[C@]12C)OC (stereo partly drawn) [Compound 64, N-(2,2-dimethoxyethyl)-N-[1-[(2S,3R,5R,10R,13R,14S,17S)-2,3,14-trihydroxy-10,13-dimethyl-6-oxo-2,3,4,5,9,11,12,15,16,17-decahydro-1H-cyclopenta[a]phenanthren-17-yl]ethyl]thiophene-2-carboxamide] | < 70
8 | COC(CN(C(=O)C1CC1)C(C)[C@H]1CC[C@@]2(O)C3=CC(=O)[C@@H]4C[C@@H](O)[C@@H](O)C[C@]4(C)C3CC[C@]12C)OC (stereo partly drawn) [Compound 65, N-(2,2-dimethoxyethyl)-N-[1-[(2S,3R,5R,10R,13R,14S,17S)-2,3,14-trihydroxy-10,13-dimethyl-6-oxo-2,3,4,5,9,11,12,15,16,17-decahydro-1H-cyclopenta[a]phenanthren-17-yl]ethyl]cyclopropanecarboxamide] | < 70
9 | CC([C@H]1CC[C@@]2(O)C3=CC(=O)[C@@H]4C[C@@H](O)[C@@H](O)C[C@]4(C)C3CC[C@]12C)N(CC(F)F)C(=O)C1CC1 (stereo partly drawn) [Compound 68, N-(2,2-difluoroethyl)-N-[1-[(2S,3R,5R,10R,13R,14S,17S)-2,3,14-trihydroxy-10,13-dimethyl-6-oxo-2,3,4,5,9,11,12,15,16,17-decahydro-1H-cyclopenta[a]phenanthren-17-yl]ethyl]cyclopropanecarboxamide] | < 70
10 | CC([C@H]1CC[C@@]2(O)C3=CC(=O)[C@@H]4C[C@@H](O)[C@@H](O)C[C@]4(C)C3CC[C@]12C)N(CC(F)F)C(=O)OC(C)(C)C (stereo partly drawn) [Compound 71, Tert-butyl N-(2,2-difluoroethyl)-N-[1-[(2S,3R,5R,10R,13R,14S,17S)-2,3,14-trihydroxy-10,13-dimethyl-6-oxo-2,3,4,5,9,11,12,15,16,17-decahydro-1H-cyclopenta[a]phenanthren-17-yl]ethyl]carbamate] | < 70
11 | CC([C@H]1CC[C@@]2(O)C3=CC(=O)[C@@H]4C[C@@H](O)[C@@H](O)C[C@]4(C)C3CC[C@]12C)N(Cc1cccnc1)C(=O)c1ccco1 (stereo partly drawn) [Compound 73, N-(3-pyridylmethyl)-N-[1-[(2S,3R,5R,10R,13R,14S,17S)-2,3,14-trihydroxy-10,13-dimethyl-6-oxo-2,3,4,5,9,11,12,15,16,17-decahydro-1H-cyclopenta(a)phenanthren-17-yl]ethyl]furan-2-carboxamide] | 71 to 85
12 | COCCN(C(=O)C(C)C)C(C)[C@H]1CC[C@@]2(O)C3=CC(=O)[C@@H]4C[C@@H](O)[C@@H](O)C[C@]4(C)C3CC[C@]12C (stereo partly drawn) [Compound 75, N-(2-methoxyethyl)-2-methyl-N-[1-[(2S,3R,5R,10R,13R,14S,17S)-2,3,14-trihydroxy-10,13-dimethyl-6-oxo-2,3,4,5,9,11,12,15,16,17-decahydro-1H-cyclopenta[a]phenanthren-17-yl]ethyl]propanamide] | < 70
13 | COC(CN(C)C(C)[C@H]1CC[C@@]2(O)C3=CC(=O)[C@@H]4C[C@@H](O)[C@@H](O)C[C@]4(C)C3CC[C@]12C)OC (stereo partly drawn) [Compound 79, (2S,3R,5R,10R,13R,14S,17S)-17-[1-(2,2-dimethoxyethyl(methyl)amino)ethyl]-2,3,14-trihydroxy-10,13-dimethyl-2,3,4,5,9,11,12,15,16,17-decahydro-1H-cyclopenta[a]phenanthren-6-one] | < 70
14 | C[C@@H]1CN(CC(=O)[C@H]2CC[C@@]3(O)C4=CC(=O)[C@@H]5C[C@@H](O)[C@@H](O)C[C@]5(C)C4CC[C@]23C)C[C@H](C)O1 (stereo partly drawn) [Compound 83, (2S,3R,5R,10R,13R,14S,17S)-17-[2-[(2S,6R)-2,6-dimethylmorpholin-4-yl]acetyl]-2,3,14-trihydroxy-10,13-dimethyl-2,3,4,5,9,11,12,15,16,17-decahydro-1H-cyclopenta[a]phenanthren-6-one] | 71 to 85
15 | COC(CN(C)CC(=O)[C@H]1CC[C@@]2(O)C3=CC(=O)[C@@H]4C[C@@H](O)[C@@H](O)C[C@]4(C)C3CC[C@]12C)OC (stereo partly drawn) [Compound 85, (2S,3R,5R,10R,13R,14S,17S)-17-[2-(2,2-dimethoxyethyl(methyl)amino)acetyl]-2,3,14-trihydroxy-10,13-dimethyl-2,3,4,5,9,11,12,15,16,17-decahydro-1H-cyclopenta[a]phenanthren-6-one] | 71 to 85
16 | C[C@]12C[C@H](O)[C@H](O)C[C@H]1C(=O)C=C1C2CC[C@]2(C)[C@@H](C(O)CN3CCC(CCO)CC3)CC[C@@]12O (stereo partly drawn) [Compound 99, (2S,3R,5R,10R,13R,14S,17S)-2,3,14-trihydroxy-17-[1-hydroxy-2-[4-(2-hydroxyethyl)-1-piperidyl]ethyl]-10,13-dimethyl-2,3,4,5,9,11,12,15,16,17-decahydro-1H-cyclopenta[a]phenanthren-6-one] | < 70
17 | CO/N=C1\C=C2C(CC[C@]3(C)[C@@H](/C(CN4CCOCC4)=N\OC)CC[C@@]23O)[C@@]2(C)C[C@H](O)[C@H](O)C[C@@H]12 (stereo partly drawn) [Compound 101, (2S,3R,5R,6E,10R,13R,14S,17S)-6-methoxyimino-17-(N-methoxy-C-(morpholinomethyl)carbonimidoyl)-10,13-dimethyl-2,3,4,5,9,11,12,15,16,17-decahydro-1H-cyclopenta[a]phenanthrene-2,3,14-triol] | < 70
